Experimental data from patent US10149876B2, “Tripterygium wilfordii extracts to overcome chemotherapy resistance” (WESTERN UNIVERSITY OF HEALTH SCIENCES, priority 2012, dated 2018).
Values joined by “and” are separate entries in the source; they are usually repeats but may differ in a detail not shown here. Equal entries are not always repeated. Where two headings read alike, the source gives them in different places.

Assays:
[1] = tested on: K562 cells; experiment: SRB cell viability assay, daunorubicin-sensitive K562 cells; type: cell-based, human; conditions: Homo sapiens, K562, read-out: IC50 of drug when cells treated with drug only
Experimental: Cell culture of the above cell lines was performed as described in Example 2, except that 5,000, rather than 3,000 cells were plated per well for the K562, K562/Dox, BT474, SkBr3 lines.
Table 17 also contains the serially-diluted concentrations of drugs that each cell line was tested against.
Table 36 reports the cell viability data relating to pre-treatment with LTG-E prior to daunorubicin treatment. Table 37 reports control data obtained from cells that were not pre-treated with LGT-E prior to daunorubicin treatment. FIG. 15 summarizes the data of Tables 36 and 37 in a graphical format.

[2] = tested on: K562/Dox cells; experiment: SRB cell viability assay, daunorubicin-resistant K562/Dox cells; type: cell-based, human; conditions: Homo sapiens

`COc1cccc2c1C(=O)c1c(O)c3c(c(O)c1C2=O)C[C@@](O)(C(C)=O)C[C@@H]3O[C@H]1C[C@H](N)[C@H](O)[C@H](C)O1` [daunorubicin] was tested, and the IC50 [1] was 1.05 µM and 0.55 µg/mL, the IC50 ([2]; K562, read-out: IC50 of drug when cells pre-treated with Chemosensitizing Agent before drug treatment) was 6.53 µM and 3.45 µg/mL and the IC50 ([2]; K562, read-out: IC50 of drug when cells treated with drug only) was 32.6 µM and 17.2 µg/mL.
